# Data published in PubChem BioAssay AID2060906 (Molecular Pharmacology Branch, DTP, NCI, 2025).
# Test system: 485176-168-R4-J1-PDC complex spheroid growth
# Experiment: Anticancer human tumor 485176-168-R4-J1-PDC patient-derived pancreatic adenocarcinoma cell line growth inhibition [RAS]
# Details: for IC50: curve of first compound; for viability, T/C: stronger effect = lower value
# Method in brief: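 Tumour cells grown as complex spheroids with HUVEC endothelial cells and mesenchymal stem cells, treated with RAS pathway inhibitor combinations. Each agent spans half-log steps from near clinical Cmax, or 10 microM where Cmax is unknown.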
# [1] = second compound 0.000949 µM, first compound 0.0316 µM
# [2] = second compound 0.000949 µM, first compound 0.1 µM
# [3] = second compound 0.000949 µM, first compound 0.316 µM
# [4] = second compound 0.000949 µM, first compound 1 µM
# [5] = second compound 0.000949 µM, first compound 3.16 µM
# [6] = second compound 0.000949 µM, first compound 10 µM
# [7] = second compound 0.003 µM, first compound 0.0316 µM
# [8] = second compound 0.003 µM, first compound 0.1 µM
# [9] = second compound 0.003 µM, first compound 0.316 µM
# [10] = second compound 0.003 µM, first compound 1 µM
# [11] = second compound 0.003 µM, first compound 3.16 µM
# [12] = second compound 0.003 µM, first compound 10 µM
# [13] = second compound 0.00949 µM, first compound 0.0316 µM
# [14] = second compound 0.00949 µM, first compound 0.1 µM
# [15] = second compound 0.00949 µM, first compound 0.316 µM
# [16] = second compound 0.00949 µM, first compound 1 µM
# [17] = second compound 0.00949 µM, first compound 3.16 µM
# [18] = second compound 0.00949 µM, first compound 10 µM
# [19] = second compound 0.03 µM, first compound 0.0316 µM
# [20] = second compound 0.03 µM, first compound 0.1 µM
# [21] = second compound 0.03 µM, first compound 0.316 µM
# [22] = second compound 0.03 µM, first compound 1 µM
# [23] = second compound 0.03 µM, first compound 3.16 µM
# [24] = second compound 0.03 µM, first compound 10 µM
# [25] = second compound 0.0949 µM, first compound 0.0316 µM
# [26] = second compound 0.0949 µM, first compound 0.1 µM
# [27] = second compound 0.0949 µM, first compound 0.316 µM
# [28] = second compound 0.0949 µM, first compound 1 µM
# [29] = second compound 0.0949 µM, first compound 3.16 µM
# [30] = second compound 0.0949 µM, first compound 10 µM
# [31] = second compound 0.3 µM, first compound 0.0316 µM
# [32] = second compound 0.3 µM, first compound 0.1 µM
# [33] = second compound 0.3 µM, first compound 0.316 µM
# [34] = second compound 0.3 µM, first compound 1 µM
# [35] = second compound 0.3 µM, first compound 3.16 µM
# [36] = second compound 0.3 µM, first compound 10 µM
# [37] = second compound 0.000949 µM, first compound 0.00316 µM
# [38] = second compound 0.000949 µM, first compound 0.01 µM
# [39] = second compound 0.003 µM, first compound 0.00316 µM
# [40] = second compound 0.003 µM, first compound 0.01 µM
# [41] = second compound 0.00949 µM, first compound 0.00316 µM
# [42] = second compound 0.00949 µM, first compound 0.01 µM
# [43] = second compound 0.03 µM, first compound 0.00316 µM
# [44] = second compound 0.03 µM, first compound 0.01 µM
# [45] = second compound 0.0949 µM, first compound 0.00316 µM
# [46] = second compound 0.0949 µM, first compound 0.01 µM
# [47] = second compound 0.3 µM, first compound 0.00316 µM
# [48] = second compound 0.3 µM, first compound 0.01 µM
# 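Further: spheroids exposed to compounds for seven days before readout.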
# 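Wherever viability, T/C is given: luminescence viability expressed relative to DMSO vehicle wells set as 100%.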
structure (smiles),measurement,setting,value
CC(C)NCC(C(=O)N1CCN(c2ncnc3c2C(C)CC3O)CC1)c1ccc(Cl)cc1 (stereo not drawn) + CCn1c(-c2cccnc2C(C)OC)c2c3cc(ccc31)N1CCOC(CC(NC(=O)C(C(C)C)N(C)C(=O)C3(F)CCN(C(=O)C#CC(C)(C)N(C)C)CC3)C(=O)N3CCCC(N3)C(=O)OCC(C)(C)C2)C1,IC50,second compound 0.000949 µM,2210 nM
same,IC50,second compound 0.003 µM,1700 nM
same,IC50,second compound 0.00949 µM,1250 nM
same,IC50,second compound 0.03 µM,1180 nM
same,IC50,second compound 0.0949 µM,1290 nM
same,IC50,second compound 0.3 µM,510 nM
same,"viability, T/C",[1],98.8%
same,"viability, T/C",[2],86%
same,"viability, T/C",[3],79.7%
same,"viability, T/C",[4],60%
same,"viability, T/C",[5],44.9%
same,"viability, T/C",[6],30%
same,"viability, T/C",[7],98.4%
same,"viability, T/C",[8],91%
same,"viability, T/C",[9],76.7%
same,"viability, T/C",[10],59.1%
same,"viability, T/C",[11],39.6%
same,"viability, T/C",[12],28.9%
same,"viability, T/C",[13],91.8%
same,"viability, T/C",[14],103%
same,"viability, T/C",[15],73%
same,"viability, T/C",[16],52.6%
same,"viability, T/C",[17],45.4%
same,"viability, T/C",[18],31.2%
same,"viability, T/C",[19],84.5%
same,"viability, T/C",[20],91.1%
same,"viability, T/C",[21],74.1%
same,"viability, T/C",[22],53.7%
same,"viability, T/C",[23],34.7%
same,"viability, T/C",[24],32.4%
same,"viability, T/C",[25],94%
same,"viability, T/C",[26],90.7%
same,"viability, T/C",[27],78.7%
same,"viability, T/C",[28],50.4%
same,"viability, T/C",[29],40.9%
same,"viability, T/C",[30],26.9%
same,"viability, T/C",[31],73.6%
same,"viability, T/C",[32],81%
same,"viability, T/C",[33],51.7%
same,"viability, T/C",[34],40.6%
same,"viability, T/C",[35],27.3%
same,"viability, T/C",[36],17.6%
CC(C)n1nc(-c2ccc3oc(N)nc3c2)c2c(N)ncnc21 + CCn1c(-c2cccnc2C(C)OC)c2c3cc(ccc31)N1CCOC(CC(NC(=O)C(C(C)C)N(C)C(=O)C3(F)CCN(C(=O)C#CC(C)(C)N(C)C)CC3)C(=O)N3CCCC(N3)C(=O)OCC(C)(C)C2)C1,IC50,second compound 0.000949 µM,22.2 nM
same,IC50,second compound 0.003 µM,28.6 nM
same,IC50,second compound 0.00949 µM,21.3 nM
same,IC50,second compound 0.03 µM,16.6 nM
same,IC50,second compound 0.0949 µM,17.4 nM
same,IC50,second compound 0.3 µM,7.54 nM
same,"viability, T/C","second compound 0.000949 µM, first compound 0.000316 µM",104%
same,"viability, T/C","second compound 0.000949 µM, first compound 0.001 µM",81.1%
same,"viability, T/C",[37],93.7%
same,"viability, T/C",[38],75.7%
same,"viability, T/C",[1],38.5%
same,"viability, T/C",[2],17.7%
same,"viability, T/C","second compound 0.003 µM, first compound 0.000316 µM",82.1%
same,"viability, T/C","second compound 0.003 µM, first compound 0.001 µM",79.9%
same,"viability, T/C",[39],85.5%
same,"viability, T/C",[40],72.5%
same,"viability, T/C",[7],48.1%
same,"viability, T/C",[8],21.4%
same,"viability, T/C","second compound 0.00949 µM, first compound 0.000316 µM",88.1%
same,"viability, T/C","second compound 0.00949 µM, first compound 0.001 µM",89.4%
same,"viability, T/C",[41],84.1%
same,"viability, T/C",[42],61.8%
same,"viability, T/C",[13],43.9%
same,"viability, T/C",[14],16%
same,"viability, T/C","second compound 0.03 µM, first compound 0.000316 µM",85.5%
same,"viability, T/C","second compound 0.03 µM, first compound 0.001 µM",84.5%
same,"viability, T/C",[43],85.7%
same,"viability, T/C",[44],62.6%
same,"viability, T/C",[19],33%
same,"viability, T/C",[20],18.6%
same,"viability, T/C","second compound 0.0949 µM, first compound 0.000316 µM",90.5%
same,"viability, T/C","second compound 0.0949 µM, first compound 0.001 µM",86.9%
same,"viability, T/C",[45],69%
same,"viability, T/C",[46],65%
same,"viability, T/C",[25],36.9%
same,"viability, T/C",[26],19.9%
same,"viability, T/C","second compound 0.3 µM, first compound 0.000316 µM",76.9%
same,"viability, T/C","second compound 0.3 µM, first compound 0.001 µM",72.8%
same,"viability, T/C",[47],59.3%
same,"viability, T/C",[48],44.1%
same,"viability, T/C",[31],34.1%
same,"viability, T/C",[32],14.2%
CC(Nc1ccc2c(c1)OCCn1cc(N3C(=O)OCC3C(F)F)nc1-2)C(N)=O (stereo not drawn) + CCn1c(-c2cccnc2C(C)OC)c2c3cc(ccc31)N1CCOC(CC(NC(=O)C(C(C)C)N(C)C(=O)C3(F)CCN(C(=O)C#CC(C)(C)N(C)C)CC3)C(=O)N3CCCC(N3)C(=O)OCC(C)(C)C2)C1,IC50,second compound 0.000949 µM,8610 nM
same,IC50,second compound 0.003 µM,8690 nM
same,IC50,second compound 0.00949 µM,9140 nM
same,IC50,second compound 0.03 µM,> 10000 nM
same,IC50,second compound 0.0949 µM,> 10000 nM
same,IC50,second compound 0.3 µM,5260 nM
same,"viability, T/C",[1],92.9%
same,"viability, T/C",[2],73.4%
same,"viability, T/C",[3],93.6%
same,"viability, T/C",[4],77.1%
same,"viability, T/C",[5],84.2%
same,"viability, T/C",[6],45%
same,"viability, T/C",[7],97.2%
same,"viability, T/C",[8],86.6%
same,"viability, T/C",[9],85.7%
same,"viability, T/C",[10],74.5%
same,"viability, T/C",[11],85.4%
same,"viability, T/C",[12],45.2%
same,"viability, T/C",[13],94.4%
same,"viability, T/C",[14],79.2%
same,"viability, T/C",[15],77.6%
same,"viability, T/C",[16],70.9%
same,"viability, T/C",[17],98.3%
same,"viability, T/C",[18],47.1%
same,"viability, T/C",[19],76.8%
same,"viability, T/C",[20],94.1%
same,"viability, T/C",[21],88.9%
same,"viability, T/C",[22],73.4%
same,"viability, T/C",[23],76.1%
same,"viability, T/C",[24],56.5%
same,"viability, T/C",[25],90.4%
same,"viability, T/C",[26],67.9%
same,"viability, T/C",[27],75.8%
same,"viability, T/C",[28],51.9%
same,"viability, T/C",[29],89.6%
same,"viability, T/C",[30],57%
same,"viability, T/C",[31],61.5%
same,"viability, T/C",[32],73.4%
same,"viability, T/C",[33],60.4%
same,"viability, T/C",[34],61.5%
same,"viability, T/C",[35],59.2%
same,"viability, T/C",[36],39.9%
O=C(c1ccc(F)c(F)c1Nc1ccc(I)cc1F)N1CC(O)([C@@H]2CCCCN2)C1 + CCn1c(-c2cccnc2C(C)OC)c2c3cc(ccc31)N1CCOC(CC(NC(=O)C(C(C)C)N(C)C(=O)C3(F)CCN(C(=O)C#CC(C)(C)N(C)C)CC3)C(=O)N3CCCC(N3)C(=O)OCC(C)(C)C2)C1,IC50,second compound 0.000949 µM,349 nM
same,IC50,second compound 0.003 µM,409 nM
same,IC50,second compound 0.00949 µM,154 nM
same,IC50,second compound 0.03 µM,235 nM
same,IC50,second compound 0.0949 µM,142 nM
same,IC50,second compound 0.3 µM,32.6 nM
same,"viability, T/C",[37],90.4%
same,"viability, T/C",[38],79%
same,"viability, T/C",[1],86.3%
same,"viability, T/C",[2],61.4%
same,"viability, T/C",[3],53.8%
same,"viability, T/C",[4],39.9%
same,"viability, T/C",[39],79.3%
same,"viability, T/C",[40],65.8%
same,"viability, T/C",[7],73.2%
same,"viability, T/C",[8],58%
same,"viability, T/C",[9],50.9%
same,"viability, T/C",[10],43.7%
same,"viability, T/C",[41],77.8%
same,"viability, T/C",[42],85.8%
same,"viability, T/C",[13],68.6%
same,"viability, T/C",[14],55%
same,"viability, T/C",[15],43.4%
same,"viability, T/C",[16],36%
same,"viability, T/C",[43],97.1%
same,"viability, T/C",[44],89.8%
same,"viability, T/C",[19],69.3%
same,"viability, T/C",[20],51.9%
same,"viability, T/C",[21],56.7%
same,"viability, T/C",[22],36.7%
same,"viability, T/C",[45],89.7%
same,"viability, T/C",[46],64.1%
same,"viability, T/C",[25],68.6%
same,"viability, T/C",[26],53.6%
same,"viability, T/C",[27],44.2%
same,"viability, T/C",[28],32.3%
same,"viability, T/C",[47],67.2%
same,"viability, T/C",[48],70.8%
same,"viability, T/C",[31],50.2%
same,"viability, T/C",[32],45.6%
same,"viability, T/C",[33],40%
same,"viability, T/C",[34],39.5%
